Experimental findings from patent publication US20220251116A1, “ALKYLBORONIC ACIDS AS ARGINASE INHIBITORS” (Guangdong Newopp Biopharmaceuticals Co., Ltd., priority 2019, published 2022) are described below.

Where a name gives a salt, the structure may show the parent alone.

The target in the assay is T1, recombinant human arginase 1 (Homo sapiens, UniProt P05089).
T1 sequence (P05089 1-322): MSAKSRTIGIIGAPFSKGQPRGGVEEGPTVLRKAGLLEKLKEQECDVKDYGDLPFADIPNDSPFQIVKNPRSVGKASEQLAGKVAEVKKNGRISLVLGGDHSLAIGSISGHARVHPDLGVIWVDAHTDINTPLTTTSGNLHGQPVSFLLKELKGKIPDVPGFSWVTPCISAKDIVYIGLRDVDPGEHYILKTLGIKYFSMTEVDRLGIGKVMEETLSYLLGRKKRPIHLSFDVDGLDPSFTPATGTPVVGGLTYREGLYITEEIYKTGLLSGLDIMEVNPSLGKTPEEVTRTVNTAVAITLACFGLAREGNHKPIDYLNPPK
Kind of assay: Arginase inhibitory activity test, enzymatic assay based on urea measurement (Arg 1).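 Note: enzyme incubated with L-arginine substrate and compound at 37 °C for 120 min, urea product detected colorimetrically by absorbance at 450 nm, background from wells lacking enzyme.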
Method: An enzymatic assay with recombinant human arginases 1 or 2 was used to measure inhibitory activity of the compounds. The assay is based on urea measurement, which is a product of L-arginine enzymatic degradation.
Briefly, arginase and the substrate solution containing L-arginine were incubated in the absence or presence of varying concentrations of compounds at 37° C. for 120 min. For the background correction, only the substrate solution was added without arginase. The urea detection reagent from QuantiChrome™ Urea assay kit (BioAssay Systems, CA) was added to develop the color product. After 60 min at room temperature, the absorbance was measured at 450 nm with CLARIOstar (BMG LABTECH). Urea was used as the standard.
A word on the IC50: it is the concentration needed to halve the response being measured. With `CNS(=O)(=O)N1C[C@H](CCCB(O)O)[C@](N)(C(=O)O)C1` (racemic) [Example 2, (rac)trans-3-amino-4-(3-boronopropyl)-1-(N-methylsulfamoyl)pyrrolidine-3-carboxylic acid, (1:1) 2,2,2-trifluoroacetic acid salt], the half-inhibitory concentration (IC50) is 1000 to 10000 nM.

As for `NC(=O)CNS(=O)(=O)N1C[C@H](CCCB(O)O)[C@](N)(C(=O)O)C1` (racemic) [Example 7, (rac)trans-3-amino-1-(N-(2-amino-2-oxoethyl)sulfamoyl)-4-(3-boronopropyl)pyrrolidine-3-carboxylic acid, (1:1) 2,2,2-trifluoroacetic acid salt], the IC50 is 1000 to 10000 nM.

With `NCC(=O)NS(=O)(=O)N1C[C@H](CCCB(O)O)[C@](N)(C(=O)O)C1` (racemic) [Example 8, (rac)trans-3-amino-4-(3-boronopropyl)-1-(N-glycylsulfamoyl)pyrrolidine-3-carboxylic acid, (1:2) 2,2,2-trifluoroacetic acid salt], the IC50 lay within 100 to 1000 nM.

As for `CC(C)(O)CNS(=O)(=O)N1C[C@H](CCCB(O)O)[C@](N)(C(=O)O)C1` (racemic) [Example 9, (rac)trans-3-amino-4-(3-boronopropyl)-1-(N-(2-hydroxy-2-methylpropyl)sulfamoyl)pyrrolidine-3-carboxylic acid, (1:1) 2,2,2-trifluoroacetic acid salt], the IC50 was in the range of 100 to 1000 nM.

Take `N[C@@]1(C(=O)O)CN(S(=O)(=O)NCCO)C[C@@H]1CCCB(O)O` (racemic) [Example 10, (rac)trans-3-amino-4-(3-boronopropyl)-1-(N-(2-hydroxyethyl)sulfamoyl)pyrrolidine-3-carboxylic acid (1:1), 2,2,2-trifluoroacetic acid salt]: the IC50 lay in the range of 100 to 1000 nM.

For the compound `CC(C)C(NS(=O)(=O)N1CC(CCCB(O)O)C(N)(C(=O)O)C1)C(=O)O` (racemic) [Example 11, (rac)trans-3-amino-4-(3-boronopropyl)-1-(N-((S)-1-carboxy-2-methylpropyl)sulfamoyl)pyrrolidine-3-carboxylic acid (diastereomer), (1:1) 2,2,2-trifluoroacetic acid salt], the IC50 lay in the range of 1000 to 10000 nM.

Consider `NCC1(NS(=O)(=O)N2C[C@H](CCCB(O)O)[C@](N)(C(=O)O)C2)CC1` (racemic) [Example 12, (rac)trans-3-amino-1-(N-(1-(aminomethyl)cyclopropyl)sulfamoyl)-4-(3-boronopropyl)pyrrolidine-3-carboxylic acid, (1:2) 2,2,2-trifluoroacetic acid salt], for which the IC50 is less than 100 nM.

`Nc1ccccc1NS(=O)(=O)N1C[C@H](CCCB(O)O)[C@](N)(C(=O)O)C1` (racemic) [Example 13, (rac)trans-3-amino-1-(N-(2-aminophenyl)sulfamoyl)-4-(3-boronopropyl)pyrrolidine-3-carboxylic acid, (1:2) 2,2,2-trifluoroacetic acid salt]: the IC50 was in the range of 100 to 1000 nM.

`N[C@@H]1C[C@H]1NS(=O)(=O)N1C[C@H](CCCB(O)O)[C@](N)(C(=O)O)C1` (racemic) [Example 15, (3R,4S)-3-amino-1-(N-((rac)trans-2-aminocyclopropyl)sulfamoyl)-4-(3-boronopropyl)pyrrolidine-3-carboxylic acid (diastereomers), (1:2) 2,2,2-trifluoroacetic acid salt]: the IC50 is less than 100 nM.

For `C[C@H](CN)NS(=O)(=O)N1C[C@H](CCCB(O)O)[C@](N)(C(=O)O)C1` (racemic) [Example 16, (rac)trans-3-amino-1-(N-((R)-1-aminopropan-2-yl)sulfamoyl)-4-(3-boronopropyl)pyrrolidine-3-carboxylic acid (diastereomers), 2,2,2-trifluoroacetic acid salt (1:2)], the IC50 was less than 100 nM.
